Results from article doi:10.1101/2021.01.05.425432v2 (biorxiv, 2021).
In brackets after ≈: the same amount, converted by molar mass. Where two headings read alike, the source gives them in different places.

Key:
jack bean urease (JBU) [1] = biological target: T1, jack bean urease (JBU) (Canavalia ensiformis, UniProt P07374); assay: tandem-well NH3 assay, salicylic acid-hypochlorite; type: biochemical
H. pylori urease (HPU) [2] = biological target: T2, H. pylori urease (HPU) (Helicobacter pylori, UniProt P69996); assay: tandem-well NH3 assay, Nessler's reagent, crude extract; type: biochemical
H. pylori [3] = assay: microbe, parasite or virus in culture; details: Helicobacter pylori, 72 h, read-out: H. pylori (MIC) µg/ml
human CSE (hCSE) = human CSE (hCSE) (Homo sapiens, UniProt P32929); assay: tandem-well H2S assay; type: biochemical
jack bean urease (JBU) [4] = biological target: T1, jack bean urease (JBU); assay: enzyme kinetics, tandem-well NH3 assay; type: biochemical
human CBS (hCBS) = biological target: T3, human CBS (hCBS) (Homo sapiens, UniProt P35520); assay: tandem-well H2S assay; type: biochemical
T3 sequence (P35520 1-551): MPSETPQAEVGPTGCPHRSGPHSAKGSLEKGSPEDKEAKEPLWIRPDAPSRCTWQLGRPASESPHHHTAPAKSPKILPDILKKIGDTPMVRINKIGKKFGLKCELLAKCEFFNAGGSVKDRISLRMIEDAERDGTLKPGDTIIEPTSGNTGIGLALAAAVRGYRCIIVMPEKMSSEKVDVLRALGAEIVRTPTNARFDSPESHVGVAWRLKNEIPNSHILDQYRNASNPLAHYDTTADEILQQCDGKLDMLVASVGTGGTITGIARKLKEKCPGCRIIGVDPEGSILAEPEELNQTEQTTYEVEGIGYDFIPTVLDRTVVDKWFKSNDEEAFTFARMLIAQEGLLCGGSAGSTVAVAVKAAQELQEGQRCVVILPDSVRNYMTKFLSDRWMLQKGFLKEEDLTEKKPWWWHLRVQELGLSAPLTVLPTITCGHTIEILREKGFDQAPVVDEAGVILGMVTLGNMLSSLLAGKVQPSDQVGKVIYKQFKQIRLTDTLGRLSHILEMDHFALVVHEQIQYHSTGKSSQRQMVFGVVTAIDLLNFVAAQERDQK

O. anthropi urease (OAU) = type: biochemical, Brucella anthropi
H. pylori [5] = assay: microbe, parasite or virus in culture; details: Helicobacter pylori, 72 h, read-out: H. pylori (MIC) µM
H. pylori urease (HPU) [6] = biological target: T2, H. pylori urease (HPU); assay: cell-based
jack bean urease (JBU) [7] = biological target: T1, jack bean urease (JBU); assay: SPR, Biacore T200, JBU immobilised on CM5 chip; type: binding
jack bean urease (JBU) [8] = biological target: T1, jack bean urease (JBU); assay: enzyme kinetics, tandem-well NH3 assay; type: biochemical; details: urea 12.5-200 mM; noncompetitive, covalent, allosteric (Cys313)
[9] = 25 mM urea, 100 μM NiCl2, 50 mM phosphate pH 7.4, 37 °C, 30 min preincubation

Chain of human CSE (hCSE) (P32929 whole entry): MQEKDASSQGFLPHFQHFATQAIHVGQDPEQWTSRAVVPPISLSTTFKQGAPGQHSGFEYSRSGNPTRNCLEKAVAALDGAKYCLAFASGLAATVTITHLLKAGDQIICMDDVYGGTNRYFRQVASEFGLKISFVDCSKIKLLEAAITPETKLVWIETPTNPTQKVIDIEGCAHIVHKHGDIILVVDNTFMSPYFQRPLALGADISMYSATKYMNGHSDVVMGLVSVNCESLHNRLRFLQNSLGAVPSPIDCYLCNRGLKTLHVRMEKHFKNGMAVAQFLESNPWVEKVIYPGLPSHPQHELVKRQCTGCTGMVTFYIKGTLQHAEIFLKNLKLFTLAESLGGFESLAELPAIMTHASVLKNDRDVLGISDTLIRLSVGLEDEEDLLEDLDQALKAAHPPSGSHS
T2 sequence (P69996 whole entry): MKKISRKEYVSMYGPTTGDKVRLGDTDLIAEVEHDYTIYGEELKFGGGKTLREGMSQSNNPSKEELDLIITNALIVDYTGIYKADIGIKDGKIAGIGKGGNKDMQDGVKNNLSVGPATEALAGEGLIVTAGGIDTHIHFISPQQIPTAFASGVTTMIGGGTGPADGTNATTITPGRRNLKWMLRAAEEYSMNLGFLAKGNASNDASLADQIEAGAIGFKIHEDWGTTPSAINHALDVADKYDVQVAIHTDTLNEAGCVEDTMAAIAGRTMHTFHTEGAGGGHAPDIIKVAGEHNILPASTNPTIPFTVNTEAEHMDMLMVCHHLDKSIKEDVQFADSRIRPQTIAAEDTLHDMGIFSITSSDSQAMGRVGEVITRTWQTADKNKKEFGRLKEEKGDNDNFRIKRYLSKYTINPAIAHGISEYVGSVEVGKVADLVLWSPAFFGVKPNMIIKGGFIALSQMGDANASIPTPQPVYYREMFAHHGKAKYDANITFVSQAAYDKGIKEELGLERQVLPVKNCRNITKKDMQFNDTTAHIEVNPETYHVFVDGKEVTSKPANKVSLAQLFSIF
T2 sequence (P14916 whole entry partner): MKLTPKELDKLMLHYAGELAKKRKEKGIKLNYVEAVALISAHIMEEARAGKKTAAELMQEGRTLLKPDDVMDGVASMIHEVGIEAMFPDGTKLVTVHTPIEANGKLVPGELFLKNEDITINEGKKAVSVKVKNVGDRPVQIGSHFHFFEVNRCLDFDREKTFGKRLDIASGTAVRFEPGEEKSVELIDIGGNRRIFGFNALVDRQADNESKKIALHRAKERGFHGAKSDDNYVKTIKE
T1 sequence (P07374 whole entry, looked up): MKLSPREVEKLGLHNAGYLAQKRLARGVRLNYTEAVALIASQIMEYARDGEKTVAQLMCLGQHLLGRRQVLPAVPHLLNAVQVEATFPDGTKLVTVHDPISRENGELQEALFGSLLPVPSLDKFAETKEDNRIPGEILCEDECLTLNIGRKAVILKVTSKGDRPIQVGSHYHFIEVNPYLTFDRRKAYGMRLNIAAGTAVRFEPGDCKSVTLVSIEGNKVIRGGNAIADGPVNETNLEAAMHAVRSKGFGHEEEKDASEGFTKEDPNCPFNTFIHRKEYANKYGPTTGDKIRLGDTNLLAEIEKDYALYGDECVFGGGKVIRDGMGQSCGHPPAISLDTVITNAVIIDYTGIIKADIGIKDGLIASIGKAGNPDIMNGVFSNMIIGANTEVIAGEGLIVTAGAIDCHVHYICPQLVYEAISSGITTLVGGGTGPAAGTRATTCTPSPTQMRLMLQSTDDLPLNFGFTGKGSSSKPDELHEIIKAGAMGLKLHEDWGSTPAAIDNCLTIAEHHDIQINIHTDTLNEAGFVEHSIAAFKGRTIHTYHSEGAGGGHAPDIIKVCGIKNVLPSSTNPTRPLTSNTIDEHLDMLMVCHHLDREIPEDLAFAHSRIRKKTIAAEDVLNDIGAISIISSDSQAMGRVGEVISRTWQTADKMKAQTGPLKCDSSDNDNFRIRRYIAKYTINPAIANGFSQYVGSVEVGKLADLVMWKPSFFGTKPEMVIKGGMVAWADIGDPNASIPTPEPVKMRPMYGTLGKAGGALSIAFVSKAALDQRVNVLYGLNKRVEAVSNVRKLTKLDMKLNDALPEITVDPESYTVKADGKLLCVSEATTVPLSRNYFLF

| Compound | IC50 (jack bean urease (JBU) [1]) [µM] | IC50 (H. pylori urease (HPU) [2]) [µM] | MIC (H. pylori [3]) [µg/mL] | IC50 (O. anthropi urease (OAU)) [µM] | MIC (H. pylori [5]) [µM] | also measured |
| --- | --- | --- | --- | --- | --- | --- |
| O=C(CCCCCCC(=O)Nc1ccccc1)NO [vorinostat] | 4.1 ± 1.9 | 14 ± 3.9 | – | – | – | – |
| CC(=O)NO [acetohydroxamic acid] | 162 ± 13.4 | 25.9 ± 1.2 | > 16 | 2.8 ± 0.9 | – | IC50 (human CSE (hCSE)): > 200 µM; Ki (jack bean urease (JBU) [4]): 2.1 ± 0.8 µM; IC50 (human CBS (hCBS)): > 200 µM |
| COc1ccc2c(=O)n(-c3ccccc3)[se]c2c1 [compound 1, 2-Phenyl-6-methoxybenzoisoselen-3-one] | – | – | – | 7.5 ± 0.6 | – | IC50 (jack bean urease (JBU) [1]; [9]): 0.3 ± 0.007 µM; IC50 (H. pylori urease (HPU) [2]; [9]): 2 ± 0.9 µM |
| CCS(=O)(=O)CCn1c([N+](=O)[O-])cnc1C [Tinidazole] | – | – | > 512 | – | > 2000 | – |
| NO [hydroxylamine] | > 20 | > 20 | – | – | – | – |
| CNC(=O)[C@H](Cc1c[nH]c2ccccc12)NC(=O)[C@@H](CC(=O)NO)CC(C)C [ilomastat] | > 20 | > 20 | – | – | – | – |
| O=c1[nH][se]c2ccccc12 [compound 4] | – | – | 2 (≈ 10.1 µM) | – | 12.5 (≈ 2.48 µg/mL) | IC50 (H. pylori urease (HPU) [6]): 18.5 ± 1.2 µM |
| O=c1c2ccccc2[se]n1-c1ccccc1 [ebselen] | 0.4 ± 0.07 | 2.8 ± 0.5 | 4 (≈ 14.6 µM) | 3 ± 1 | 12.5 (≈ 3.43 µg/mL) | Kd (jack bean urease (JBU) [7]): 0.089 ± 0.005 µM; IC50 (human CSE (hCSE)): 44.3 ± 1.3 µM; IC50 (H. pylori urease (HPU) [6]): 5.7 ± 1.3 µM; IC50 (human CBS (hCBS)): > 200 µM; αKi (jack bean urease (JBU) [8]): 0.8 ± 0.2 µM |
| Cc1[nH]c2ccccc2c1CCNCc1ccc(/C=C/C(=O)NO)cc1 [panobinostat] | 0.2 ± 0.006 | 0.1 ± 0.01 | – | 0.07 ± 0.006 | – | Kd (jack bean urease (JBU) [7]): 8.9 ± 0.4 µM; IC50 (human CSE (hCSE)): > 200 µM; Ki (jack bean urease (JBU) [4]): 0.02 ± 0.01 µM; IC50 (human CBS (hCBS)): > 200 µM |
| O=c1[nH][se]c2ccccc12 [compound 4, Benzisoselenol-3-one] | 0.8 ± 0.008 | 1.1 ± 0.08 | – | 2.2 ± 0.1 | – | – |
| CN(C)Cc1c(C(=O)NCCOc2ccc(C(=O)NO)cc2)oc2ccccc12 [abexinostat] | 1.4 ± 0.3 | 1.3 ± 0.2 | – | – | – | – |
| O=C(CCCCCCNC(=O)c1cnc(N(c2ccccc2)c2ccccc2)nc1)NO [ricolinostat] | > 20 | > 20 | – | – | – | – |
| O=C(/C=C/c1cccc(S(=O)(=O)Nc2ccccc2)c1)NO [belinostat] | 4.7 ± 0.5 | 3.2 ± 0.2 | – | – | – | – |
| CCCn1[se]c2ccccc2c1=O [compound 5, 2-Propyl-benzisoselenol-3-one] | 1.4 ± 0.03 | > 10 | – | 5.3 ± 0.9 | – | – |
| CSn1[se]c2ccccc2c1=O [compound 6, 2-Methylthio-benzisoseleno-3-one] | – | – | – | 1.7 ± 0.1 | – | IC50 (jack bean urease (JBU) [1]; [9]): 0.3 ± 0.04 µM; IC50 (H. pylori urease (HPU) [2]; [9]): 1.3 ± 0.4 µM |
| c1ccc(C[Se][Se]Cc2ccccc2)cc1 [dibenzyl diselenide] | – | – | > 64 | – | > 200 | – |
| Cc1ncc([N+](=O)[O-])n1CCO [Metronidazole] | – | – | > 512 | – | > 3000 | – |
| O=C1c2ccccc2[Se](=O)N1c1ccccc1 (stereo not shown) [Ebselen oxide] | 0.4 ± 0.005 | 1.5 ± 0.2 | 4 (≈ 13.8 µM) | 3.3 ± 0.1 | 12.5 (≈ 3.63 µg/mL) | IC50 (H. pylori urease (HPU) [6]): 23.2 ± 1.1 µM |
| COc1ccc2c(=O)n(-c3ccccc3)[se]c2c1 [compound 1] | – | – | 2 (≈ 6.57 µM) | – | 6.25 (≈ 1.9 µg/mL) | – |
| CCN(CC)C(=S)SSC(=S)N(CC)CC [disulfiram] | 38.9 ± 2.7 | 8.9 ± 1.5 | 4 (≈ 13.5 µM) | 35 ± 0.1 | 12.5 (≈ 3.71 µg/mL) | IC50 (human CSE (hCSE)): > 200 µM; IC50 (H. pylori urease (HPU) [6]): 36.3 ± 1 µM; IC50 (human CBS (hCBS)): > 200 µM |
